Source: US10974081B2, “Treatment and prevention of sleep disorders” (Purdue Pharma L.P., priority 2016, dated 2021)
In brackets after ≈: the same amount, converted by molar mass. Read-outs that look alike come from different tables or passages of the source.

Key:
[1] = In vivo functional observational battery (FOB); settings: male, Crl:CD(SD), rat, in vivo, po
[2] = test system: rats; test: In vivo functional observational battery (FOB); settings: for Increased touch response: 10 mg/kg
[3] = test system: human liver microsomes; test: In vitro metabolic stability, human liver microsomes; type: in vitro ADME; settings: 2 μM, % remaining after 30 minutes at 37° C.
Procedure: (§1) The comparative in vitro metabolic stabilities of Compounds (1F), […], and W-212393 were determined upon exposure to human liver microsomes or rat liver microsomes according to a procedure disclosed in, e.g., Example 14 of U.S. Pat. No. 9,290,488, which is hereby incorporated by reference in its entirety. Liver microsomes from Crj;CD rats or humans were incubated with 2 μM of each tested compound; thereafter, the supernatant was analyzed by HPLC-MS for the concentration of the tested compound present. Human liver microsomes, pooled, 20 mg/mL, were obtained from […] #H0610). […] Alternatively and if desired, rat liver microsomes can be obtained commercially from, e.g., XenoTech (Sprague-Dawley rat liver microsomes, pooled, 20 mg/mL, cat #R1000). β-NADPH (β-nicotinamide adenine dinucleotide 2'-phosphate reduced tetrasodium salt hydrate) was obtained from Oriental Yeast Co., Ltd. (Tokyo, Japan). Each tested compound, present at an initial concentration of 2 μM, was incubated at 37° C. in the presence of 0.5 mg/mL of either human microsomes or rat microsomes in suspension in 50 mM Tris-HCl buffer (7.4 pH), 150 mM KCl, 10 mM MgCl2, and 1 mM β-NADPH. Incubation was initiated upon the addition of a 100-fold concentrated solution of the tested compound to one of the microsome preparations. Incubation was terminated by addition of a two-fold volume of a 1/1 mixture of acetonitrile/methanol after either 0 minutes or 30 minutes of incubation at 37° C. Thereafter, proteins and other macromolecules from the microsome preparation were removed by centrifugation. All incubations were conducted in duplicate. […] The HPLC system consisted of a Waters 2795 separations module (Waters Corp., Milford, Mass.) equipped with an inline degasser, temperature controlled auto-sampler, and column oven. The analytical column was a Waters […], 2.1 mm×20 mm column. The mass analyzer was a Waters ZQ, single quadrupole mass spectrometer equipped with an electrospray ionization source operating in the positive ionization mode and utilizing a stainless steel spray capillary. […]

[4] = test system: rat liver microsomes; test: In vitro metabolic stability, rat liver microsomes; type: in vitro ADME; settings: 2 μM, % remaining after 30 minutes at 37° C.
Procedure: as §1

[5] = Rat protein binding, equilibrium dialysis of rat plasma; type: in vitro ADME; settings: rat, rat plasma, 2 μg/mL, 24 hours dialysis at 37° C.
Procedure: (§2) The extent of in vitro binding of Compound (1F), […], or W-212393 to rat plasma was determined as an assessment of the protein binding of each compound, i.e., compound unavailable for modulating receptor activity. Plasma from rats containing a tested compound in one chamber of a dialysis cell was dialyzed with PBS in the other chamber; thereafter, the supernatant from each chamber was analyzed for the concentration of the tested compound present. A cell suitable for equilibrium dialysis was used in the determinations. The dialysis membrane described in Example 10 (with molecular mass cutoff of 12,000-14,000 Da) separated the dialysis cell into two chambers. The membrane was soaked with purified water and PBS before being placed into the dialysis cell. 4 μL of an iv formulation of each tested compound was added to 996 μL of rat plasma, the latter obtained using syringe containing heparin and EDTA by the procedure described in Example 10, to provide a plasma sample with a tested compound concentration of 2 μg/mL. 450 μL of the plasma sample was applied to one chamber (plasma chamber) of the dialysis cell. A 450 μL aliquot of PBS was applied to the other chamber (PBS chamber) of the dialysis cell. The dialysis study was conducted in duplicate for each tested compound. After 24 hours of equilibrium dialysis at 37° C., 30 μL of liquid from the plasma chamber of the dialysis cell was collected and to this was added 270 μL of fresh PBS (this combination was designated Sample “1”). Then, 270 μL of liquid from the PBS chamber of the dialysis cell was collected and to this was added 30 μL of control rat plasma (i.e., rat plasma never exposed to any test compound, this combination was designated Sample “2”). Thereafter, each sample was mixed well and stored in a freezer until the next analysis step. After the protein precipitated in the freezer, each supernatant thusly obtained was analyzed by LC-MS-MS for unbound test compound. […] Thereafter, the percentage of rat protein-bound (“RPB”) tested compound was calculated as follows: […]

[6] = Aqueous solubility at pH about 6.8; type: physicochemical; settings: 25 °C, pH 6.8, aqueous buffer, kinetic from dmso stock
[7] = in vivo; settings: male, Crl, CD(SD), rat, brain homogenate and plasma, intravenous, 0.5 mg/kg
[8] = In vivo bioavailability after oral dosing; settings: male, Sprague-Dawley [Crl:CD(SD)], rat, plasma; 1 mg/kg oral, non-fasted; mean of multiple determinations
[9] = biological target: mu-opioid receptor (Homo sapiens, UniProt P35372); settings: determined in Example 18 of U.S. Pat. No. 8,476,271; cited from earlier work
Chain of mu-opioid receptor (P35372 whole entry): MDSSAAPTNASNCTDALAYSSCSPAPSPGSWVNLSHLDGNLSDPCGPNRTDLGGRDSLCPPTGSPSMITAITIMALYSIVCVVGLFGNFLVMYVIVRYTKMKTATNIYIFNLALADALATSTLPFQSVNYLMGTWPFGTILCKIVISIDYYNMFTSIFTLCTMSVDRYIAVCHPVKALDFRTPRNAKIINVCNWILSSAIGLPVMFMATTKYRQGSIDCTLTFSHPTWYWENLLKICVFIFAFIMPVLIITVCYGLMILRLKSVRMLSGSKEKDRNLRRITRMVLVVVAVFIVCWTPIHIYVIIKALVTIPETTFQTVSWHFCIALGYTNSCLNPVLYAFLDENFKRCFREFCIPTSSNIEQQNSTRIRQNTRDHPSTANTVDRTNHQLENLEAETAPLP

[10] = biological target: ORL-1 receptor (Homo sapiens, UniProt P41146); test: Functional [^35S]GTPγS binding assay, ORL-1; type: biochemical; settings: from ORL-1 Emax results in Table 21
Chain of ORL-1 receptor (P41146 whole entry): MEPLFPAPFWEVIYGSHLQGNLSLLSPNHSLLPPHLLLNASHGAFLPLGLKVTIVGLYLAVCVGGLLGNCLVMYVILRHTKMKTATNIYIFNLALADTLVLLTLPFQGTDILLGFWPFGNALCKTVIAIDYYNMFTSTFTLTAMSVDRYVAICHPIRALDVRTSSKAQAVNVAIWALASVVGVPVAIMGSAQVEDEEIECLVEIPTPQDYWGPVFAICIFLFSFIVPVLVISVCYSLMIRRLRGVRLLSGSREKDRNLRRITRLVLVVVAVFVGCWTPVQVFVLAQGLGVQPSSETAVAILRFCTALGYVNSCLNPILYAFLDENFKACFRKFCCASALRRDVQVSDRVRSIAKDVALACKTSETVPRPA

[11] = test system: rats; test: EEG/EMG sleep-wake analysis, single administration compared to zolpidem; type: in vivo, rat
[12] = test system: chronic insomniacs; settings: 10 mg zolpidem, PSG in chronic insomniacs; cited from earlier work
[13] = test system: rat plasma; test: Rat protein binding, equilibrium dialysis of rat plasma; type: in vitro ADME
Procedure: as §2

[14] = Free unbound compound fraction, equilibrium dialysis of rat serum; type: in vitro ADME; settings: male, Crl:CD (SD), rat, rat serum; 2 μg/mL, 24 hours dialysis at 37° C.
Procedure: (§3) The extent of in vitro binding of Compound (1F) or W-212393 to rat serum was determined as an assessment of the availability of free unbound compound for modulating receptor activity according to a procedure disclosed in, e.g., Example 15 of U.S. Pat. No. 9,290,488, which is hereby incorporated by reference in its entirety. Serum from rats containing a tested compound in one chamber of a dialysis cell was dialyzed with phosphate buffered saline (“PBS”) in the other chamber; thereafter, the supernatant from each chamber was analyzed for the concentration of the tested compound present. […] The final concentration of each tested compound in the serum sample was adjusted to 2 μg/mL by adding an appropriate volume of PBS. A cell suitable for equilibrium dialysis was used in the determinations. A SPECTRA/POR dialysis membrane (with molecular mass cutoff of 12,000-14,000 Da, Spectrum Laboratories, Inc., Rancho Dominguez, Calif.) separated the dialysis cell into two chambers. A 500 μL aliquot of the serum sample containing a tested compound was applied to one chamber (serum chamber) of the dialysis cell. A 500 μL aliquot of PBS was applied to the other chamber (PBS chamber) of the dialysis cell. The dialysis study was conducted in duplicate for each tested compound. After 24 hours of equilibrium dialysis at 37° C., 30 μL of liquid from the serum chamber of the dialysis cell was collected and to this was added 270 μL of fresh PBS (this combination was designated Sample “A”). Then, 270 μL of liquid from the PBS chamber of the dialysis cell was collected and to this was added 30 μL of control rat serum (i.e., rat serum never exposed to any test compound, this combination was designated Sample “B”). […] Each supernatant was analyzed by LC-MS-MS. […] Thereafter, the percentage of free unbound tested compound was calculated from the ratio of the tested compound amount determined from Sample B divided by the sum of the tested compound amounts determined from Sample A and Sample B.

[15] = test system: rat serum; test: as above; type: in vitro ADME; settings: average of multiple determinations
Procedure: as §3

[16] = 30 mg/kg, 1 h after administration
[17] = 30 mg/kg, 2 h after administration
[18] = 30 mg/kg, 4 h after administration
[19] = 30 mg/kg, 6 h after administration
[20] = 30 mg/kg, 8 h after administration
[21] = 30 mg/kg, 24 h after administration
[22] = 300 mg/kg, 1 h after administration
[23] = 300 mg/kg, 2 h after administration
[24] = 300 mg/kg, 4 h after administration
[25] = 300 mg/kg, 6 h after administration
[26] = 300 mg/kg, 8 h after administration
[27] = 300 mg/kg, 24 h after administration
[28] = 50 mM phosphate buffer, second procedure (50 mM phosphate buffer, HPLC), read-out: Solubility at pH 6.8
[29] = first procedure (JP2 solution, LC-MS), read-out: Solubility at pH 6.8

SMILES: C[C@@H]1C[C@@H]2C[C@H](C1)C[C@@H](N1[C@@H]3CCC[C@H]1C[C@@H](n1c(=O)c(C(=O)O)nc4ccccc41)C3)C2 [Compound 405]
- NOAEL [1]: 10 mg/kg
- Increased touch response ([2]; 1 h after administration): 1 of 6
- Increased touch response ([2]; 2 h after administration): N
- Increased touch response ([2]; 4 h after administration): N
- Increased touch response ([2]; 6 h after administration): N
- Increased touch response ([2]; 8 h after administration): N
- Increased touch response ([2]; 24 h after administration): N
- Biting behavior [2, 16]: N
- Jumping [2, 16]: N
- Biting behavior [2, 17]: N
- Jumping [2, 17]: N
- Biting behavior [2, 18]: N
- Jumping [2, 18]: N
- Biting behavior [2, 19]: 3 of 6
- Jumping [2, 19]: 1 of 6
- Biting behavior [2, 20]: N
- Jumping [2, 20]: N
- Biting behavior [2, 21]: N
- Jumping [2, 21]: N
- Biting behavior ([2]; 100 mg/kg, 1 h after administration): N
- Biting behavior ([2]; 100 mg/kg, 2 h after administration): N
- Biting behavior ([2]; 100 mg/kg, 4 h after administration): N
- Biting behavior ([2]; 100 mg/kg, 6 h after administration): 1 of 6
- Biting behavior ([2]; 100 mg/kg, 8 h after administration): 1 of 6
- Biting behavior ([2]; 100 mg/kg, 24 h after administration): N
- Biting behavior [2, 22]: N
- Jumping [2, 22]: N
- Biting behavior [2, 23]: N
- Jumping [2, 23]: N
- Biting behavior [2, 24]: N
- Jumping [2, 24]: N
- Biting behavior [2, 25]: 2 of 6
- Jumping [2, 25]: 1 of 6
- Biting behavior [2, 26]: 1 of 6
- Jumping [2, 26]: 2 of 6
- Biting behavior [2, 27]: N
- Jumping [2, 27]: N

SMILES: C[C@@H]1C[C@@H]2C[C@H](C1)C[C@@H](N1[C@@H]3CCC[C@H]1C[C@@H](n1c(=O)c(C(=O)O)nc4ccccc41)C3)C2 [Compound 405K]
- Human Metabolic Stability (%) [3]: 95.1%
- Rat Metabolic Stability (%) [4]: 96.9%
- fraction unbound at 24 h, 2 μg/mL [5]: ~0.14
- solubility at 16 h [6, 28]: 5 µM (≈ 2.25 µg/mL)
- solubility at 16 h [6, 29]: 8 µM (≈ 3.6 µg/mL)
- solubility at 16 h ([6]; pH of about 6.8, average of two determinations, read-out: aqueous solubility, average): ~6.5 µM (≈ 2.92 µg/mL)
- Kp at 30 min [7]: 0
- bioavailability [8]: 63.7%

SMILES: O=C(O)c1nc2ccccc2n([C@H]2C[C@H]3CCC[C@@H](C2)N3C2CC3CCCC(C3)C2)c1=O (stereo partly shown) [Compound (1C)]
- GTPγS Mu Emax [9]: 0%
- agonist classification at ORL-1 from Emax [10]: partial agonists

SMILES: Cc1ccc(-c2nc3ccc(C)cn3c2CC(=O)N(C)C)cc1 [zolpidem, reference compound]
- overall sleep effect ([11]; single zolpidem dose of 10 mg/kg oral): sleep-enhancing effect
- effect on percentage of time spent in REM sleep ([11]; zolpidem 10 mg/kg oral (FIG. 17B, 18B)): no significant effects
- NREM sleep versus vehicle ([11]; zolpidem 10 mg/kg oral, 3 hour block 0-3 hours after dosing (FIG. 18C)): significant increase
- wakefulness versus vehicle ([11]; zolpidem 10 mg/kg oral, 3 hour blocks, 0-12 hours after administration (FIG. 18A)): decreased tendency
- percentage of time spent in wakefulness ([11]; zolpidem 10 mg/kg oral, at 1 hour after dosing (FIG. 17A)): about 46%
- percentage of time spent in NREM sleep ([11]; zolpidem 10 mg/kg oral, at 1 hour after dosing (FIG. 17C)): about 53%
- percentage of time spent in wakefulness ([11]; zolpidem 10 mg/kg oral, at 10 hours after dosing (FIG. 17A)): ~43%
- percentage of time spent in NREM sleep ([11]; zolpidem 10 mg/kg oral, at 15 hours after dosing (FIG. 17C)): ~30%
- percentage of time spent in wakefulness ([11]; zolpidem 10 mg/kg oral, at 15 hours after dosing, lights-on period (FIG. 17A)): about 69%
- Mean percent SE higher than placebo group [12]: 7%

SMILES: O=C(O)c1nc2ccccc2n([C@H]2C[C@H]3CCC[C@@H](C2)N3C2CC3CCCC(C3)C2)c1=O (stereo partly shown) [Compound (1F)]
- Human Metabolic Stability (%) [3]: 98.7%
- Rat Metabolic Stability (%) [4]: 95.3%
- fraction unbound at 24 h, 2 μg/mL [5]: 0.491
- Rat Protein Binding (%) ([13]; 2 μg/mL, 24 hours dialysis at 37° C.): 53.0%
- bound compound fraction, average ([13]; average of multiple determinations): 52%
- solubility at 16 h [6, 28]: 35 µM (≈ 15.2 µg/mL)
- solubility at 16 h [6, 29]: > 50 µM
- solubility at 16 h ([6]; pH of about 6.8, over both determinations, read-out: aqueous solubility): ≥ 35 µM
- fraction unbound at 24 h, 2 μg/mL [14]: 0.65 to 0.7
- free unbound compound fraction, average [15]: 67.5%
